In patent US10329235B2, “System and method for producing 1,4-cyclohexanedimethanol and 1,4- cyclohexanedicarboxylic acid from terephthalic acid” (ClearWaterBay CHDM Technology Limited, priority 2017, dated 2019):

Assays:
[1] = Dissolution of TPA and CHDA in water in stirred autoclave (Examples 1-3); assay type: physicochemical; conditions: Examples 1-3: 1.7-1.9 wt % TPA, 28.1-48.2 wt % CHDA, 50-70 wt % water, 170-190 °C, 10 MPa, 15 minutes
Procedure: These examples are provided to highlight and validate the use of the method based on the dissolution chart for setting solvent and recirculation flows. For each of these examples, a slurry was prepared in a stirred autoclave, by mixing pre-determined amounts of water, TPA in powder form, and CHDA (22% trans) in powder form. The autoclave was then pressurized to 10 MPa using nitrogen gas and the temperature was then raised to the pre-determined level. Samples were drawn after 15 minutes of operation at this temperature level and analyzed to determine the compositions of TPA and CHDA. The predetermined feed mixture compositions and the pre-determined temperature levels for these experiments are shown in Table 1 below. Each pre-determined feed mixture composition is chosen such that it very closely corresponds to water/TPA and recirculation/TPA flow ratios that may be used in actual operation according to the preferred values from FIG. 6.

[2] = Solubility of TPA in water; assay type: physicochemical
Excerpt: Based on this, it is clearly evident that it will be beneficial to have processes for production of CHDM and CHDA directly from TPA without going through an intermediate TPA derivative. As noted initially, the main hurdle for such processes is getting TPA into the liquid phase.

Dissolution in water/TPA/CHDA mixture [1] | TPA Solubility ([2]; 150 °C) [wt fraction] | TPA Solubility ([2]; 200 °C) [wt fraction] | TPA Solubility ([2]; 250 °C) [wt fraction] | Compound
completely dissolved |  |  |  | O=C(O)C1CCC(C(=O)O)CC1 (centres unmarked) [CHDA, 1,4-cyclohexanedicarboxylic acid]
completely dissolved | 0.0022 | 0.016 | 0.11 | O=C(O)c1ccc(C(=O)O)cc1 [TPA, terephthalic acid]
